{"source": "patent US20260306526A1", "about": "“COMBINATION THERAPY FOR BACTERIAL INFECTIONS COMPRISING ZINC-CHELATOR, BETA-LACTAM ANTIBIOTIC AND SERINE BETA-LACTAMASE INHIBITOR” (priority 2023, published 2026)", "key": {"[1]": {"test_system": "Klebsiella pneumoniae K66-45", "assay": "MIC determination, fixed ratio of sBLI to antibiotic (Examples 2-4)", "type": "cell-based", "settings": "Example 2; with MEM and AVI (fixed ratio); NDM-1; caMHB, 29.4 μM Zn2+", "protocol": "Antimicrobial susceptibility testing (AST) by broth microdilution (MIC determination) was performed according to The European Committee on Antimicrobial Susceptibility Testing (EUCAST) guidelines (see Reading guide for broth microdilution Version 5.0, 2024: https://www.eucast.org).\nSterile clear round bottom polystyrene (non-treated) 96-well microplates (Corning 3788) were used for making serial two-fold dilutions of the antibiotic and the sBLI in cation-adjusted Mueller Hinton II broth (caMHB; Thermo Scientific, T3462, containing 29.4 μM Zn^2+), across the columns of the microtiter plate (256-0.06 μg/mL; columns 1-12). The checkerboard plates were all made by keeping the sBLI at a fixed ratio relative to antibiotic (absolute concentrations of each, in μg/mL) to all wells containing sample in each plate. Additionally, a set of samples was included in each test plate, where the zinc chelator was added, at various fixed concentrations, of 16 μg/mL, 8 μg/mL and/or 4 μg/mL (as specified in each Example). All sample wells contained growth medium (caMHB), and inoculated bacteria at a final inoculum between 3-7×10^5 CFU/mL. […]"}, "[2]": {"test_system": "K. pneumoniae K66-45 (NDM-1)", "assay": "MIC determination of meropenem with zinc chelator at varying zinc concentrations in the medium (Example 31)", "type": "cell-based, Klebsiella pneumoniae", "protocol": "An experiment was conducted to determine the Minimal Inhibitory Concentration (MIC) of meropenem (MEM) in combination with the zinc chelator according to Example 26 of WO 2018/033719 at varying concentrations of zinc in the medium. The medium was a Mueller Hinton broth from Thermo Fischer. The zinc content was measured as 5.6 μM using ICP-MS. The concentration of zinc in the plasma of healthy animals has been determined to be close to this value. In infectious tissue, the zinc concentration is below the limit of detection (see, for example Bilinskaya et al., Am. Soc. For Microbiology (2020), 58, pages 1-8). Zinc sulfate was then added to this broth to obtain three further concentrations: 15.6 μM, 25.6 μM and 35.6 μM of zinc, keeping all other parameters constant.\nAs a model bacterial strain for this experiment, the MIC of MEM vs. K. pneumoniae K66-45 (NDM-1) was then determined in broth containing the four concentrations of zinc following the protocol given in Example 1. The EUCAST MIC value for MEM alone (EUCAST: standardization organization for MIC values of antibiotics) is 4-8 μM, meaning that if a bacterial strain is inhibited at lower concentrations than the MIC value, the bacterial strain is sensitive(S) to MEM. Correspondingly, if the bacterial strain is not inhibited at MIC or lower, the strain is resistant (R). If the inhibition is within the MIC range 4-8 μM, the resistance is intermediate (I)."}, "[3]": {"test_system": "bacteria which rely on SBLs", "settings": "with MEM; cited from earlier work"}}, "note": "“And” between values parts separate entries of the source, which are not always exact repeats. Equal entries are not always repeated.", "data": [{"molecule": "CN(C[C@H](O)[C@@H](O)[C@H](O)[C@H](O)CO)C(=O)c1ccc(CN(Cc2ccccn2)Cc2ccccn2)nc1", "note": "[zinc chelator]", "values": [{"measurement": "Synergy with the zinc chelator observed at concentration", "setting": "[1]", "result": "16 µg/mL and 8 µg/mL"}, {"measurement": "sensitivity of the strain", "setting": "[2]; printed: \"at 4-8 μM when used tested at a concentration 4 μM\", with MEM", "result": "sensitive"}, {"measurement": "effect against the bacterial strain", "setting": "[2]; zinc chelator 16 μM with MEM, highest concentration of zinc (35.6 μM)", "result": "ineffective"}, {"measurement": "effect of combination", "setting": "[3]", "result": "no effect"}]}]}
